Reference: PubChem BioAssay (NCI)
Several values for one entry are separate records, joined by “and”; a condition that tells them apart may be missing. Identical values can stand only once.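 Each compound was tested at five concentrations against cells in 96-well plates for 48 hours. GI50 is the concentration that inhibits growth by half. Definition used: TGI = concentration required for complete inhibition of growth.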 Where a SMILES comes first, the peptide text is derived from it. [ ]: non-standard residue; d: D form. The star is where a group is joined. ξ: configuration not given here. NMeF = CN[C@@H](Cc1ccccc1)C(=O)O; NMeV = CN[C@H](C(=O)O)C(C)C; ξNMeV = CNC(C(=O)O)C(C)C; Boc = CC(C)(C)OC(=O)*; OBn = c1ccc(CO*)cc1

Key:
Test in all cases: inhibition of tumour cell growth, NCI panel, 48 h
[1] = test system: HOP-92 NSCLC
[2] = test system: SNB-75 CNS
[3] = test system: SK-MEL-5 melanoma
[4] = test system: K-562 leukemia
[5] = test system: SK-MEL-28 melanoma
[6] = test system: UACC-257 melanoma
[7] = test system: NCI-H522 lung
[8] = test system: NCI-H226 lung
[9] = test system: MOLT-4 leukemia
[10] = test system: MCF7 breast

Row | SMILES | TGI [1] | TGI [2] | TGI [3] | TGI [4] | TGI [5] | TGI [6] | TGI [7] | TGI [8] | TGI [9] | TGI [10] | GI50 [1] | GI50 [2] | GI50 [3] | GI50 [10] | GI50 [6] | GI50 [8] | GI50 [4] | GI50 [9] | GI50 [5]
1 | Cc1ccc(NC(=O)C2C3CCC(O3)C2C(=O)O)cc1 (stereo not given) | > 92.9 µM | > 100 µM | > 100 µM | > 77.6 µM | > 100 µM | > 100 µM | > 100 µM | > 100 µM | > 100 µM |  |  |  |  |  |  |  |  |  | 
2 | CCOC(=O)c1nc2cc(Cl)ccc2[nH]c1=O | > 100 µM |  | > 100 µM | > 100 µM | > 100 µM | > 100 µM | > 100 µM | > 100 µM | > 100 µM | > 100 µM |  |  |  |  |  |  |  |  | 
3 | CCNC(=S)NNC(=O)c1ccccc1Nc1ccccc1C(=O)NNC(=S)NCC | > 100 µM | > 100 µM | > 100 µM | > 100 µM | > 100 µM |  | > 100 µM | > 100 µM | > 100 µM | > 100 µM |  |  |  |  |  |  |  |  | 
4 | CNC(=O)CNC(=O)N(C[C@@H]1CCCN1C(=O)[C@H](CC(C)C)NC(=O)OC(C)(C)C)C(C)C |  | > 100 µM | > 100 µM | > 100 µM | > 100 µM |  | > 100 µM | > 100 µM | > 100 µM | > 100 µM |  |  |  |  |  |  |  |  | 
5 | CC1OC(O[C@@H]2C=C3CC[C@@H]4[C@H](CC[C@]5(C)[C@@H](c6ccc(=O)oc6)CC[C@]45O)[C@@]3(C)CC2)C(O)C(OC2OC(CO)C(O)C(O)C2O)C1O (stereo not given in full) |  | 0.0587 µM and 0.0407 µM | 0.0175 µM |  | 0.0867 µM | 0.0441 µM and 0.0265 µM | 0.000427 µM | 0.0549 µM and 0.0732 µM |  | 0.0804 µM and 0.0468 µM | 0.000166 µM | 0.000974 µM | 0.00014 µM | 0.000196 µM | 0.00126 µM | 0.0101 µM |  |  | 
6 | CN(C)CCC[N+]1=Nc2cccc3cccc(c23)N1 | > 100 µM | > 100 µM | 34.2 µM | > 100 µM | > 100 µM | > 100 µM | 91.2 µM | > 100 µM | 62.4 µM |  |  |  |  |  |  |  |  |  | 
7 | O=C1CN(c2cccc(C(F)(F)F)c2)C(=O)CN1CCN1CC(=O)N(c2cccc(C(F)(F)F)c2)CC1=O |  | > 100 µM | > 100 µM | > 100 µM | > 100 µM | > 100 µM | > 100 µM |  | > 100 µM | > 100 µM |  |  |  |  |  |  |  |  | 
8 | Cn1c(=O)c2[nH]c(SC/C(=N/O)c3ccc(Br)cc3)nc2n(C)c1=O | 4.56 µM | 5.07 µM |  | > 100 µM |  |  |  |  | 64 µM |  | 2.02 µM | 2.04 µM |  |  |  |  | 25.9 µM | 20.4 µM | 
9 | Cc1nc2ccc(NC3OCC(O)C(O)C3O)cc2c(=O)n1-c1ccccc1 (stereo not given) |  | > 100 µM | > 100 µM | > 100 µM | > 100 µM | > 100 µM | > 100 µM | > 100 µM | > 100 µM | > 100 µM |  |  |  |  |  |  |  |  | 
10 | C=CCOC(=O)Cn1ccc(=O)[nH]c1=O |  | > 100 µM | > 100 µM | > 100 µM | > 100 µM | > 100 µM |  | > 100 µM | > 100 µM | > 100 µM |  |  |  |  |  |  |  |  | 
11 | CSc1ncc2c(n1)-c1ccccc1OC2 | 86.9 µM | > 100 µM | > 100 µM |  |  | > 100 µM | > 100 µM | > 100 µM | > 100 µM | > 100 µM |  |  |  |  |  |  |  |  | 
12 | O=C(O)c1nn(-c2ccccc2)nc1-c1nn(-c2ccccc2)nc1C(=O)O | > 100 µM |  | > 100 µM | > 100 µM | > 100 µM | > 100 µM |  | > 100 µM | > 100 µM | > 100 µM |  |  |  |  |  |  |  |  | 
13 | COc1ccc(Nc2nc(N)c(C(=O)c3ccc(Cl)cc3)s2)cc1 | > 93.3 µM | 24.8 µM | 2.19 µM | > 100 µM | > 100 µM | > 100 µM | < 0.01 µM | 0.117 µM |  | > 32.9 µM |  |  |  |  |  |  |  |  | 
14 | CC(=O)NC(C)(C)C1CCC(C)CC1 (stereo not given) |  | > 100 µM | > 100 µM | > 100 µM | > 100 µM | > 100 µM |  | > 100 µM | > 100 µM | > 100 µM |  |  |  |  |  |  |  |  | 
15 | COc1ccc(N2C(=O)/C(=C/c3ccc(N(CCC#N)CCC#N)cc3)N=C2c2ccccc2)cc1 | > 100 µM | > 100 µM | > 100 µM | > 100 µM | > 100 µM | > 100 µM |  | > 100 µM | > 100 µM | > 100 µM |  |  |  |  |  |  |  |  | 
16 | CC(=O)OCC1OC(N=[N+]=[N-])C(OC(C)=O)C(OC(C)=O)C1OC1OC(COC(C)=O)C(OC(C)=O)C(OC(C)=O)C1OC(C)=O (stereo not given) |  | 60.8 µM | > 100 µM | > 100 µM | > 100 µM | > 100 µM | > 100 µM |  | > 100 µM |  |  |  |  |  |  |  |  |  | 
17 | CC(C)(C)OC(=O)N1N=CCC1c1ccccc1 (stereo not given) | > 100 µM | > 100 µM | > 100 µM | > 100 µM |  | > 100 µM | > 100 µM | > 100 µM |  | > 100 µM |  |  |  |  |  |  |  |  | 
18 | CC#COS(=O)(=O)c1ccc(C)cc1 |  |  | > 100 µM | > 100 µM |  | > 100 µM | > 100 µM | > 100 µM | > 100 µM |  |  |  |  |  |  |  |  |  | 
19 | O=C1C(=C([O-])c2ccccc2)C(=O)c2ccccc21.O=C1C(=C([O-])c2ccccc2)C(=O)c2ccccc21.[Ni+2] |  | > 100 µM | 54.9 µM |  | > 100 µM | > 100 µM |  | 63.5 µM |  |  |  | 35.2 µM | 18.2 µM |  | 83.3 µM | 4.68 µM |  |  | 62.2 µM
20 | CC(C)C(C(=O)N(C)[C@H](C(=O)N1CCC[C@H]1C(=O)N(C)[C@@H](Cc1ccccc1)C(=O)OCc1ccccc1)C(C)C)N(C)C(=O)[C@@H](NC(=O)OC(C)(C)C)C(C)C (stereo not given in full) (Boc-V[ξNMeV][NMeV]P[NMeF]-OBn) | 30.4 µM | > 100 µM | 15.5 µM | 12.6 µM | > 31.6 µM | > 31.6 µM | > 100 µM | > 100 µM | 21.3 µM |  |  |  |  |  |  |  |  |  | 
21 | CCCCCCCCCCCCOC1C(COCCN2CCCCC2)OC2OC(C)(C)OC21 (stereo not given) |  |  | 2.93 µM |  | 3.25 µM | 3.18 µM | 2.97 µM | 17.6 µM | 3.74 µM | 3.23 µM |  |  |  |  |  |  |  |  | 
22 | COc1ccc2[nH]c3c(c2c1)CC(=O)N1CCC[C@H](C1)CC31OCCCO1 | > 100 µM | > 100 µM | > 100 µM |  | > 100 µM | > 100 µM |  | > 100 µM |  | > 100 µM |  |  |  |  |  |  |  |  | 
23 | COc1ccccc1C(=O)OCC1CCCN2CCCCC12 (stereo not given) | > 100 µM | 63.4 µM | > 100 µM | > 100 µM | 65.7 µM | > 100 µM |  | > 100 µM | > 100 µM | > 100 µM |  |  |  |  |  |  |  |  | 
